Reference: patent US20250229073A1, “TRANSIENT DISRUPTION OF THE NEUROVASCULAR BARRIER OF A HUMAN AND USES THEREOF FOR TREATING AMYOTROPHIC LATERAL SCLEROSIS” (SORBONNE UNIVERSITE, priority 2022, published 2025)

Tests used:
[1] = test system: patients suffering from ALS; details: clinical, literature; cited from earlier work
[2] = Blood spinal cord barrier opening assessed by Evan's Blue Dye spinal cord uptake quantification; format: in vivo; details: healthy WT mice
Procedure: (§1) A 1-cm, 1 MHz planar ultrasound transducer was coupled to the skin with ultrasound coupling gel and positioned to target the lumbar spinal cord. The peak acoustic pressure was 0.5 MPa for tolerance tests in WT mice and 0.35 MPa was sufficient for blood spinal cord disruption assessment and for ALS mouse procedures (FIG. 1). At the beginning of the sonication, 0.2 mL of microbubbles (SonoVue, Bracco®) were injected intravenously. Twenty-four mice were used to test the sonication protocol
Blood spinal cord opening was assessed on 27 WT mice with Evan's Blue Dye (EBD) spinal cord uptake quantification.
(§2) The spinal cord was removed and frozen in liquid nitrogen. • For immunohistological analysis and motor neuron count (fixed tissues), the mice were perfused transcardially with 20 mL PBS then 50 mL of 4% paraformaldehyde in phosphate buffer. The spinal cord was extracted, and placed for 4 hours in 4% paraformaldehyde for post-fixation and then cryopreserved in a 30% sucrose solution in PBS before freezing. Thirty-micron thick transverse sections were cut on a cryostat at −18° C. Floating segments of spinal cord were stored in phosphate buffered saline solution at 4° C. Motor neuron counts were determined on serial sections across the lumbar spinal cords (15-20 sections per animal) after Nissl staining. • For immunostaining, sections were incubated overnight at room temperature with the following antibodies: rabbit anti-Iba1 (1:500 Wako Chemicals), anti-GFAP (1:500 Dako anti GFAP), rat anti-CD4 (1:100, AbD Serotec), rat anti CD3 (1:100, AbD Serotec), rat anti CD8 (1:100, AbD Serotec, rabbit polyclonal to human SOD1 (1:10000, Abcam). Species specific Alexa Fluor 488, 594, 647 (1:1000 Life Technologies) were used as secondary antibodies
GraphPad (GraphPad Software, San Diego, CA) was used for all statistical analysis. Statistical significance was set at p≤0.05. […] A Log-rank P value was calculated with Mantel-Cox test to compare the survival curves and corrected with the Bonferroni coefficient.

SOD1^G93A ALS mice [3] = experiment: Histological analysis of spinal cord of the ALS treated mice (immunostaining, motor neuron counts); format: in vivo
Source text: The onset of disease was defined as the time point at which the mice were at peak weight before they started to lose weight due to progressive motor neuron denervation and muscle wasting, as shown in FIG. 1. The symptomatic stage was defined as the age at which the mice had lost 10% of their maximal weight and is accompanied by gait alterations and failure of hindlimb splaying reflex. This disease stage was followed by progressive paralysis. […] In each group some randomly assigned mice were sacrificed at the symptomatic stage (defined as 10% of weight loss) or at disease end stage for immunohistological analysis.
as §2
GraphPad (GraphPad Software, San Diego, CA) was used for all statistical analysis. Statistical significance was set at p≤0.05. […] Duration of early and late phases between the groups were compared by ANOVA after a normality test and followed by post-hoc Tukey-Kramer Multiple comparison test or Dunnett's multiple comparison test. Motor neuron count, immune activation and SOD1 expression were compared in different group using Kruskall Wallis test. Data are represented as Mean+SEM. Kruskal Wallis non parametric test was used to compare the total number of lymphocytes (CD4 and CD8). Survival analysis (onset disease, end-stage) was performed with Kaplan-Meier statistics. A Log-rank P value was calculated with Mantel-Cox test to compare the survival curves and corrected with the Bonferroni coefficient.

SOD1^G93A ALS mice [4] = experiment: Clinical and survival evaluation of treated ALS mice; format: in vivo
Procedure: Eighty Mutant SOD1^G93A female mice modeling ALS [B6.Cg-Tg (SOD1^G93A) 1Gur/J] were purchased from Jackson Laboratories (stock #004435) and 120 wild type control mice (WT), with a C57B16/J genetic background. The animal protocol complied with the European laws for the protection of experimental animals and was approved by the local ethics committee. Mice were maintained on a 12:12 h dark: light cycle with food and water available ad libitum. Moisturized food pellets were supplied when mice became weak. ALS mice were hemizygous for a 12 kb genomic fragment encoding the human wild-type or mutated SOD1 gene under its endogenous promoter. Mice carrying the human SOD1 transgene were identified by PCR screening of tail DNA using mouse SOD1 forward primer (5′-[…]-3′), human SOD1 forward primer (5′-[…]-3′) and mouse and human SOD1 reverse primer (5′-[…]-3′) resulting in a ˜800 bp mouse and a ˜600 bp human SOD1 PCR product.
To represent as close as possible the clinical disease progression in humans, treatment started at the beginning of the disease and not at a presymptomatic stage. SOD1^G93A mice are a particularly severe model in terms of symptoms. The mice quickly become too weak to tolerate general anesthesia, which led us to stop treatments at 135 days of age, or 1 month of treatment (5 sessions). This corresponds approximately to the end of the early phase of the disease.
as §1
Controls and US mice received a subcutaneous injection of 0.9% saline. […]
Muscle strength of mice was assessed by three different motor tests: grip testing, inverted screen testing and wire suspension testing. […]

[5] = IGF1 spinal cord uptake quantification (Quantikine ELISA human IGF-1); format: in vivo; details: healthy WT mice
Procedure: A 1-cm, 1 MHz planar ultrasound transducer was coupled to the skin with ultrasound coupling gel and positioned to target the lumbar spinal cord. […] At the beginning of the sonication, 0.2 mL of microbubbles (SonoVue, Bracco®) were injected intravenously. Twenty-four mice were used to test the sonication protocol
Fourteen sonicated lumbar spinal cord were compared to 15 non-sonicated lumbar spinal cord
GraphPad (GraphPad Software, San Diego, CA) was used for all statistical analysis. Statistical significance was set at p≤0.05. […] Data are represented as Mean+SEM.

## Nc1nc2ccc(OC(F)(F)F)cc2s1 [riluzole, 2-amino-6-trifluoromethoxybenzothiazole]
[1]
  side effects in ALS patients: asthenia, spasticity and an increase in the transaminase levels

## Cc1cc(-c2ccc(/N=N/c3ccc4c(S(=O)(=O)[O-])cc(S(=O)(=O)[O-])c(N)c4c3O)c(C)c2)ccc1/N=N/c1ccc2c(S(=O)(=O)[O-])cc(S(=O)(=O)[O-])c(N)c2c1O.[Na+].[Na+].[Na+].[Na+] [EBD, Evan's Blue Dye]
[2]
  EBD concentration, sonicated compared to non-sonicated segments: 3.4 times
[2]; non-sonicated segments
  EBD concentration in spinal cord, non-sonicated segments: 41 µg/g
[2]; sonicated segments of spinal cord
  EBD concentration in spinal cord, sonicated segments: 142 µg/g

## IGF1: rhIGF1 (Mecasermine, IPSEN Pharma), Insulin-like Growth Factor 1, subcutaneous injection of 500 μg/kg
SOD1^G93A ALS mice [3]; disease end stage
  immunofluorescent area occupied by SOD1, end stage mice: lowest percentage of SOD1
SOD1^G93A ALS mice [3]; end stage, control 11±3.6
  number of lymphocytes (CD3+) per section: 28.5±3.8
SOD1^G93A ALS mice [3]; stage not given, control 12±2.6, unit from FIG. 4 legend
  astrocyte reactivity, immunoreactive area for GFAP: 5.9±2.5%
SOD1^G93A ALS mice [3]; symptomatic stage (10% weight loss)
  immunofluorescent area occupied by SOD1, symptomatic mice: lowest percentage of SOD1
SOD1^G93A ALS mice [3]; symptomatic stage, control 10.3±0.6%
  microglial reactivity, Iba1 immunoreactivity: 5±2.1%
SOD1^G93A ALS mice [3]; symptomatic stage, control 13±3.5
  number of lymphocytes (CD3+) per section: 20±5.3
SOD1^G93A ALS mice [4]; SOD1^G93A mice, 5 weekly sessions from P106, control 166.5 days
  ALS mouse survival (median age): 166 days
SOD1^G93A ALS mice [4]; peak weight to 10% weight loss, control 37.4±3.4, b130 gives the gain in days
  early disease phase duration: 36.8±2.8
SOD1^G93A ALS mice [4]; whether or not associated with ultrasound, 0.5 mg/kg once a week, five injections
  effect of IGF1 administration on survival or functional tests: no additional effect
[5]
  IGF1 concentration, sonicated compared to non-sonicated: 1100 times
